# Test results reported in paper PMC10739871, “Structural insights into the regulation, ligand recognition, and oligomerization of bacterial STING” (Nature Communications, 2023).
# Where “and” joins values, the source holds several entries; their conditions need not be identical. Equal entries are not always repeated. Where two headings read alike, the source gives them in different places.
# Experiments:
# [1] = test system: T2 phage infection of E. coli cells overexpressing ElTIR-STING; format: cell-based, E. coli BL21(DE3) / phage T2; details: for OD600: replicates 1-3
# [2] = target: ElSTING; assay: ITC binding of cAA to ElSTING; set-up: species or system Epilithonimonas lactis; details: ITC (Supplementary Fig. 5)
# Experimental: ITC experiments were performed at 25 °C using nano-ITC (TA Instruments). Purified RiSTING and ElSTING were exchanged into assay buffer containing 20 mM Tris pH 8.0, 150 mM NaCl. 10 mM stock of cGG (Item No. 17144, Cayman Chemical) and cAA (Item No. 17753, Cayman Chemical) were prepared by dissolving in the same buffer. 20 injections of ligand (0.9-1.2 mM) were sequentially titrated to tested STING protein solution (30-100 μM) with a stirring speed of 300 rpm. Data were fit to “independent” model to derive ΔH, ΔS, and Kd values using NanoAnalyze v3.12.5 (TA Instruments).
# [3] = test system: E. coli cells overexpressing ElTIR-STING; assay: E. coli toxicity assay (growth curves), ElTIR-STING with or without cAA; format: cell-based, E. coli BL21(DE3); details: for OD600: replicates 1-3
# Experimental: To access the cytotoxicity of TIR-STING proteins and their variants, E. coli BL21(DE3) cells which produce endogenous cGG were used. The cells carrying expression plasmid pET21 or pET24 with indicated TIR-STING were first inoculated into 3-ml LB medium and incubated at 37 °C with shaking overnight. The overnight culture was then diluted by fresh LB medium to an optical density at 600 nm (O.D.600) of ~0.1-0.2, followed by addition of 0.5 mM IPTG and 30 mM nicotinamide to induce the overexpression of tested proteins. […] To access the anti-phage ability of full-length LrTIR-STING, E. coli BL21(DE3) cells containing empty vector, pET24_LrTIR-STING or pET24_LrTIR-STING lid-to-loop mutant was first cultivated at 37 °C overnight and then diluted with fresh medium to O.D.600 of 0.1-0.2, followed by 0.5 mM IPTG induction and infected with T2 phage at a multiplicity of infection (MOI) of 10 or 0.01. The E. coli BL21(DE3) cells without IPTG induction and T2 phage infection was served as control.
# [4] = test system: ElTIR-STING; assay: Gel filtration / SEC-MALS of ElTIR-STING with cAA; set-up: species or system Epilithonimonas lactis
# Experimental: Purified protein samples for SEC-MALS analysis were diluted in buffer containing 50 mM Tris pH 8.0, 200 mM NaCl, 1 mM TCEP to a final concentration of 1 mg/ml. The protein sample was incubated with 0.11 mM cyclic di-nucleotide at 4 °C for 1 hour, followed by centrifugation at 4 °C, 18,000x g for 30 mins to remove precipitated proteins. The final protein sample was analyzed using GE AKTA UPC Purifier FPLC system coupled to a Wyatt Optilab T-rex refractive index detector and a Wyatt miniDAWN TREOS to obtain O.D.280, molar mass and refractive index (dRI).
# [5] = test system: ElTIR-STING; assay: NAD+ cleavage activity assay, ElTIR-STING; format: biochemical, Epilithonimonas lactis; details: for ΔRFU after 10 mins (single replicates): 500 μM ε-NAD; for ΔRFU after 10 mins, Average: n = 3
# Experimental: The NAD^+ cleavage activity of the N-terminal TIR domain of full-length TIR-STING proteins were accessed using the previously described protocol. Briefly, 100 μl reaction mixture containing ligand (cGG or cAA) at the indicated concentration and 500 μM ε-NAD (Product No. N2630, Sigma-Aldrich) in the assay buffer (20 mM HEPES pH 7.5, 100 mM KCl) was pre-incubated at room temperature. Tested TIR-STING protein (0.5–1 μM) was then added to start the reaction. The fluorescence signal was continuously monitored for 1 hour at an emission wavelength of 410 nm with excitation at 300 nm using Synergy H1 microplate reader (BioTek). The changes of relative fluorescence units at different time points were recorded.
compound,measurement,setting,value
"Nc1ncnc2c1ncn2[C@@H]1O[C@@H]2COP(=O)(O)O[C@H]3[C@@H](O)[C@H](n4cnc5c(N)ncnc54)O[C@@H]3COP(=O)(O)O[C@H]2[C@H]1O [cAA, 3′3′-cyclic di-AMP]",resistance to phage infection (in words),"[1]; 100 μM cAA in growth medium, T2 phage",did not confer resistance
same,OD600,"[1]; MOI = 0.01, time 30 min",0.015 and 0.017 and 0.016
same,OD600,"[1]; MOI = 0.01, time 45 min",0.021 and 0.024 and 0.023
same,OD600,"[1]; MOI = 0.01, time 60 min",0.030 (2×) and 0.032
same,OD600,"[1]; MOI = 0.01, time 75 min",0.036 (2×) and 0.038
same,OD600,"[1]; MOI = 0.01, time 90 min",0.040 (2×) and 0.043
same,OD600,"[1]; MOI = 0.01, time 105 min",0.042 and 0.045 and 0.041
same,OD600,"[1]; MOI = 0.01, time 120 min",0.046 (2×) and 0.050
same,OD600,"[1]; MOI = 0.01, time 135 min",0.050 and 0.053 and 0.049
same,OD600,"[1]; MOI = 0.01, time 150 min",0.054 and 0.057 and 0.062
same,OD600,"[1]; MOI = 0.01, time 165 min",0.058 and 0.060 and 0.056
same,OD600,"[1]; MOI = 0.01, time 180 min",0.061 and 0.064 and 0.058
same,OD600,"[1]; MOI = 1, time 30 min",0.017 and 0.015 and 0.011
same,OD600,"[1]; MOI = 1, time 45 min",0.019 and 0.018 and 0.012
same,OD600,"[1]; MOI = 1, time 60 min",0.021 and 0.019 and 0.014
same,OD600,"[1]; MOI = 1, time 75 min",0.021 and 0.020 and 0.015
same,OD600,"[1]; MOI = 1, time 90 min",0.023 and 0.021 and 0.016
same,OD600,"[1]; MOI = 1, time 105 min",0.025 and 0.023 and 0.018
same,OD600,"[1]; MOI = 1, time 120 min",0.027 and 0.025 and 0.019
same,OD600,"[1]; MOI = 1, time 135 min",0.028 and 0.025 and 0.020
same,OD600,"[1]; MOI = 1, time 150 min",0.029 and 0.027 and 0.021
same,OD600,"[1]; MOI = 1, time 165 min",0.030 and 0.028 and 0.022
same,OD600,"[1]; MOI = 1, time 180 min",0.030 and 0.029 and 0.022
same,OD600,"[1]; Uninfected, time 30 min",0.025 and 0.017 (2×)
same,OD600,"[1]; Uninfected, time 45 min",0.032 and 0.023 and 0.024
same,OD600,"[1]; Uninfected, time 60 min",0.034 and 0.033 (2×)
same,OD600,"[1]; Uninfected, time 75 min",0.049 and 0.047 and 0.046
same,OD600,"[1]; Uninfected, time 90 min",0.067 and 0.064 and 0.063
same,OD600,"[1]; Uninfected, time 105 min",0.091 and 0.087 (2×)
same,OD600,"[1]; Uninfected, time 120 min",0.121 and 0.117 and 0.116
same,OD600,"[1]; Uninfected, time 135 min",0.160 and 0.155 and 0.152
same,OD600,"[1]; Uninfected, time 150 min",0.208 and 0.200 and 0.197
same,OD600,"[1]; Uninfected, time 165 min",0.262 and 0.252 and 0.247
same,OD600,"[1]; Uninfected, time 180 min",0.327 and 0.313 and 0.308
same,OD600,"[1]; Uninfected, time 195 min",0.398
same,binding affinity (in words),[2],micromolar affinity
same,OD600,"[3]; time 0 min, 300 μM cAA (Fig. 4b legend)",0.028 (2×) and 0.026
same,OD600,"[3]; time 20 min, 300 μM cAA",0.036 and 0.037 and 0.034
same,OD600,"[3]; time 40 min, 300 μM cAA",0.056 (2×) and 0.054
same,OD600,"[3]; time 60 min, 300 μM cAA",0.083 (2×) and 0.079
same,OD600,"[3]; time 80 min, 300 μM cAA",0.125 and 0.124 and 0.119
same,OD600,"[3]; time 100 min, 300 μM cAA",0.186 and 0.183 and 0.175
same,OD600,"[3]; time 120 min, 300 μM cAA",0.252 (2×) and 0.244
same,OD600,"[3]; time 140 min, 300 μM cAA",0.33 and 0.331 and 0.326
same,OD600,"[3]; time 160 min, 300 μM cAA",0.408 (2×) and 0.41
same,OD600,"[3]; time 180 min, 300 μM cAA",0.503 and 0.497 and 0.506
same,OD600,"[3]; time 200 min, 300 μM cAA",0.563 and 0.565 and 0.575
same,OD600,"[3]; time 220 min, 300 μM cAA",0.612 and 0.615 and 0.627
same,OD600,"[3]; time 240 min, 300 μM cAA",0.66 (2×) and 0.677
same,OD600,"[3]; time 260 min, 300 μM cAA",0.7 and 0.704 and 0.715
same,OD600,"[3]; time 280 min, 300 μM cAA",0.73 and 0.732 and 0.743
same,OD600,"[3]; time 300 min, 300 μM cAA",0.765 and 0.764 and 0.784
same,OD600,"[3]; time 320 min, 300 μM cAA",0.798 and 0.804 and 0.81
same,OD600,"[3]; time 340 min, 300 μM cAA",0.822 and 0.831 and 0.839
same,OD600,"[3]; time 360 min, 300 μM cAA",0.854 and 0.863 and 0.865
same,OD600,"[3]; time 380 min, 300 μM cAA",0.875 and 0.886 and 0.885
same,OD600,"[3]; time 400 min, 300 μM cAA",0.892 and 0.904 and 0.902
same,OD600,"[3]; time 420 min, 300 μM cAA",0.901 and 0.917 and 0.912
same,OD600,"[3]; time 440 min, 300 μM cAA",0.911 and 0.927 and 0.92
same,OD600,"[3]; time 460 min, 300 μM cAA",0.919 and 0.935 and 0.929
same,OD600,"[3]; time 480 min, 300 μM cAA",0.926 and 0.943 and 0.935
same,OD600,"[3]; time 500 min, 300 μM cAA",0.933 and 0.952 and 0.942
same,effect on growth of E. coli expressing ElTIR-STING (in words),[3]; with vs without addition of cAA and vs empty vector,no differences
same,molecular weight of cAA-induced ElTIR-STING oligomer,"[4]; SEC-MALS, 0.11 mM cyclic di-nucleotide",3937–7883 kDa
same,oligomeric state induced (in words),"[4]; gel filtration, 2-fold molar excess of cAA, dimeric without ligand",large oligomers
same,ΔRFU after 10 mins (single replicates),[5]; 1 μM cAA,3735 RFU and 3756 RFU and 9276 RFU
same,"ΔRFU after 10 mins, Average",[5]; 1 μM cAA,5589 RFU
same,ΔRFU after 10 mins (single replicates),[5]; 10 μM cAA,3586 RFU and 4211 RFU and 4642 RFU
same,"ΔRFU after 10 mins, Average",[5]; 10 μM cAA,4146 RFU
same,ΔRFU after 10 mins (single replicates),[5]; 100 μM cAA,4282 RFU and 3852 RFU and 4467 RFU
same,"ΔRFU after 10 mins, Average",[5]; 100 μM cAA,4200 RFU
same,activation of NAD+ cleavage activity (in words),"[5]; full-length ElTIR-STING, up to 100 μM cAA",could not activate
